Laboratory results: PubChem BioAssay (NCI)
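Each compound was tested at five concentrations against cells in 96-well plates for 48 hours. At the GI50, growth is halved. TGI denotes the concentration required for complete inhibition of growth.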

Tests used:
Test in all cases: growth of human tumour cells (NCI), 48 h
786-0 renal = test system: 786-0 renal
A498 renal = test system: A498 renal
A549 NSCLC = test system: A549 NSCLC
ACHN renal = test system: ACHN renal
BT-549 breast = test system: BT-549 breast
CAKI-1 renal = test system: CAKI-1 renal
CCRF-CEM leukemia = test system: CCRF-CEM leukemia
COLO 205 colon = test system: COLO 205 colon
DU-145 prostate = test system: DU-145 prostate
EKVX NSCLC = test system: EKVX NSCLC
HCC-2998 colon = test system: HCC-2998 colon
HCT-116 colon = test system: HCT-116 colon
HCT-15 colon = test system: HCT-15 colon
HL-60(TB) leukemia = test system: HL-60(TB) leukemia
HOP-62 NSCLC = test system: HOP-62 NSCLC
HOP-92 NSCLC = test system: HOP-92 NSCLC
HS 578T breast = test system: HS 578T breast
HT29 colon = test system: HT29 colon
IGROV1 ovarian = test system: IGROV1 ovarian
K-562 leukemia = test system: K-562 leukemia
KM12 colon = test system: KM12 colon
LOX IMVI melanoma = test system: LOX IMVI melanoma
M14 melanoma = test system: M14 melanoma
MALME-3M melanoma = test system: MALME-3M melanoma
MCF7 breast = test system: MCF7 breast
MDA-MB-231 breast = test system: MDA-MB-231 breast
MDA-MB-435 = test system: MDA-MB-435
NCI-H226 lung = test system: NCI-H226 lung
NCI-H23 lung = test system: NCI-H23 lung
NCI-H460 lung = test system: NCI-H460 lung
NCI-H522 lung = test system: NCI-H522 lung
NCI/ADR-RES ovarian = test system: NCI/ADR-RES ovarian
OVCAR-3 ovarian = test system: OVCAR-3 ovarian
OVCAR-4 ovarian = test system: OVCAR-4 ovarian
OVCAR-5 ovarian = test system: OVCAR-5 ovarian
PC-3 prostate = test system: PC-3 prostate
RPMI-8226 leukemia = test system: RPMI-8226 leukemia
RXF 393 renal = test system: RXF 393 renal
SF-268 CNS = test system: SF-268 CNS
SF-295 CNS = test system: SF-295 CNS
SF-539 CNS = test system: SF-539 CNS
SK-MEL-2 melanoma = test system: SK-MEL-2 melanoma
SK-MEL-28 melanoma = test system: SK-MEL-28 melanoma
SK-MEL-5 melanoma = test system: SK-MEL-5 melanoma
SK-OV-3 ovarian = test system: SK-OV-3 ovarian
SN12C renal = test system: SN12C renal
SNB-19 CNS = test system: SNB-19 CNS
SNB-75 CNS = test system: SNB-75 CNS
SR leukemia = test system: SR leukemia
SW-620 colon = test system: SW-620 colon
T-47D breast = test system: T-47D breast
TK-10 renal = test system: TK-10 renal
U251 CNS = test system: U251 CNS
UACC-257 melanoma = test system: UACC-257 melanoma
UACC-62 melanoma = test system: UACC-62 melanoma
UO-31 renal = test system: UO-31 renal

SMILES: CCNCCNc1cc(-c2ccc(Cl)cc2)c(C#N)c2nc3ccccc3n12
- GI50 (786-0 renal): 1490 nM
- TGI (786-0 renal): 2870 nM
- GI50 (A498 renal): 2010 nM
- TGI (A498 renal): 3520 nM
- GI50 (A549 NSCLC): 1920 nM
- TGI (A549 NSCLC): 3620 nM
- GI50 (ACHN renal): 1480 nM
- TGI (ACHN renal): 2890 nM
- GI50 (BT-549 breast): 1750 nM
- TGI (BT-549 breast): 3340 nM
- GI50 (CAKI-1 renal): 1630 nM
- TGI (CAKI-1 renal): 3280 nM
- GI50 (CCRF-CEM leukemia): 490 nM
- TGI (CCRF-CEM leukemia): 2410 nM
- GI50 (COLO 205 colon): 1460 nM
- TGI (COLO 205 colon): 3270 nM
- GI50 (DU-145 prostate): 1710 nM
- TGI (DU-145 prostate): 3090 nM
- GI50 (EKVX NSCLC): 1600 nM
- TGI (EKVX NSCLC): 3310 nM
- GI50 (HCC-2998 colon): 1840 nM
- TGI (HCC-2998 colon): 3400 nM
- GI50 (HCT-116 colon): 1270 nM
- TGI (HCT-116 colon): 2590 nM
- GI50 (HCT-15 colon): 1250 nM
- TGI (HCT-15 colon): 2640 nM
- GI50 (HL-60(TB) leukemia): 1650 nM
- TGI (HL-60(TB) leukemia): 3650 nM
- GI50 (HOP-62 NSCLC): 2370 nM
- TGI (HOP-62 NSCLC): 5400 nM
- GI50 (HOP-92 NSCLC): 1700 nM
- TGI (HOP-92 NSCLC): 3200 nM
- GI50 (HS 578T breast): 2200 nM
- TGI (HS 578T breast): 4680 nM
- GI50 (HT29 colon): 1790 nM
- TGI (HT29 colon): 3470 nM
- GI50 (IGROV1 ovarian): 1680 nM
- TGI (IGROV1 ovarian): 3370 nM
- GI50 (K-562 leukemia): 1290 nM
- TGI (K-562 leukemia): 3060 nM
- GI50 (KM12 colon): 1730 nM
- TGI (KM12 colon): 3240 nM
- GI50 (LOX IMVI melanoma): 1520 nM
- TGI (LOX IMVI melanoma): 2930 nM
- GI50 (M14 melanoma): 1880 nM
- TGI (M14 melanoma): 3380 nM
- GI50 (MALME-3M melanoma): 1690 nM
- TGI (MALME-3M melanoma): 3380 nM
- GI50 (MCF7 breast): 1370 nM
- TGI (MCF7 breast): 3050 nM
- GI50 (MDA-MB-231 breast): 1920 nM
- TGI (MDA-MB-231 breast): 3580 nM
- GI50 (MDA-MB-435): 1580 nM
- TGI (MDA-MB-435): 2950 nM
- GI50 (NCI-H226 lung): 1790 nM
- TGI (NCI-H226 lung): 4310 nM
- GI50 (NCI-H23 lung): 1850 nM
- TGI (NCI-H23 lung): 3910 nM
- GI50 (NCI-H460 lung): 1790 nM
- TGI (NCI-H460 lung): 3370 nM
- GI50 (NCI-H522 lung): 2000 nM
- TGI (NCI-H522 lung): 3840 nM
- GI50 (NCI/ADR-RES ovarian): 1850 nM
- TGI (NCI/ADR-RES ovarian): 3910 nM
- GI50 (OVCAR-3 ovarian): 1450 nM
- TGI (OVCAR-3 ovarian): 2850 nM
- GI50 (OVCAR-4 ovarian): 1640 nM
- TGI (OVCAR-4 ovarian): 4090 nM
- GI50 (OVCAR-5 ovarian): 1910 nM
- TGI (OVCAR-5 ovarian): 3670 nM
- GI50 (PC-3 prostate): 1860 nM
- TGI (PC-3 prostate): 3390 nM
- GI50 (RPMI-8226 leukemia): 2300 nM
- TGI (RPMI-8226 leukemia): 4920 nM
- GI50 (RXF 393 renal): 1440 nM
- TGI (RXF 393 renal): 2780 nM
- GI50 (SF-268 CNS): 1540 nM
- TGI (SF-268 CNS): 3000 nM
- GI50 (SF-295 CNS): 1720 nM
- TGI (SF-295 CNS): 3310 nM
- GI50 (SF-539 CNS): 1720 nM
- TGI (SF-539 CNS): 3220 nM
- GI50 (SK-MEL-2 melanoma): 2060 nM
- TGI (SK-MEL-2 melanoma): 3890 nM
- GI50 (SK-MEL-28 melanoma): 1800 nM
- TGI (SK-MEL-28 melanoma): 3340 nM
- GI50 (SK-MEL-5 melanoma): 1700 nM
- TGI (SK-MEL-5 melanoma): 3110 nM
- GI50 (SK-OV-3 ovarian): 1850 nM
- TGI (SK-OV-3 ovarian): 3470 nM
- GI50 (SN12C renal): 1890 nM
- TGI (SN12C renal): 3850 nM
- GI50 (SNB-19 CNS): 1840 nM
- TGI (SNB-19 CNS): 3640 nM
- GI50 (SNB-75 CNS): 1330 nM
- TGI (SNB-75 CNS): 2670 nM
- GI50 (SR leukemia): 282 nM
- TGI (SR leukemia): 690 nM
- GI50 (SW-620 colon): 1520 nM
- TGI (SW-620 colon): 3140 nM
- GI50 (T-47D breast): 1740 nM
- TGI (T-47D breast): 3860 nM
- GI50 (TK-10 renal): 2040 nM
- TGI (TK-10 renal): 3620 nM
- GI50 (U251 CNS): 1700 nM
- TGI (U251 CNS): 3270 nM
- GI50 (UACC-257 melanoma): 2180 nM
- TGI (UACC-257 melanoma): 3920 nM
- GI50 (UACC-62 melanoma): 1850 nM
- TGI (UACC-62 melanoma): 3650 nM
- GI50 (UO-31 renal): 1490 nM
- TGI (UO-31 renal): 2940 nM
